Target: Bromodomain-containing protein 4 (Homo sapiens, UniProt O60885)
Assay: FP Competitive Binding Assay (No.350)
Conditions: 25 °C
Description: Fluorescence Polarization (FP) competitive binding studies (see above) were carried out using the FAM labeled fluorescent probe Cpd. No. 350 to determine binding affinities of representative compounds to both BD1 and BD2 of BRD2, BRD3, and BRD4 proteins. Equilibrium dissociation constants (Id) values of Cpd. […] Final Cpd. […] Kd values of Cpd.

SMILES	Ki [nM]
COc1cc2c(cc1-c1c(C)noc1C)[nH]c1nc(C)nc(-c3ccc(NC(=O)N4CCN(C)CC4)c4ccccc34)c12 [US9675697, Cpd. No. 316]	2.9
COc1cc2c(cc1-c1c(C)noc1C)[nH]c1nc(C)nc(-c3ccc(NC(=O)N4CCN(C5COC5)CC4)c4ccccc34)c12 [US9675697, Cpd. No. 317]	7.1
